How the values were obtained:
[1] = target: T1, human NK1R (Homo sapiens, UniProt P25103); experiment: Effect on activity of tachykinin receptor type 1 (intracellular calcium, fluorescence); format: cell-based; conditions: U373 cells expressing human NK1R, agonist [Sar9,Met(O2)11]-SP 1 nM, read-out: IC50, antagonist of tachykinin receptor type 1
T1 construct: U373 cells expressing human NK1R were used in the experiment; endogenous in cells; host or cells: U373 cells
Procedure: Compound I was dissolved in DMSO to a concentration of 100 mM; then the stock solution was serially diluted with DMSO. The maximal start concentration of substance is 100 μM. The effect was determined at 8 concentrations of test compound, each concentration was investigated twice. U373 cells expressing human NK1R were used in the experiment, said cells after the preincubation with an agonist [Sar9,Met(O2)11]-SP (1 nM) were incubated with Compound I. The activity of receptors was determined by the intracellular calcium concentration using fluorescence spectroscopy (Glia. 1992; 6(2):89-95).

[2] = target: human recombinant μ-opioid receptor (Homo sapiens, UniProt P35372); experiment: μ-opioid receptor radioligand displacement ([3H]DAMGO); format: binding
Chain of human recombinant μ-opioid receptor (P35372 whole entry): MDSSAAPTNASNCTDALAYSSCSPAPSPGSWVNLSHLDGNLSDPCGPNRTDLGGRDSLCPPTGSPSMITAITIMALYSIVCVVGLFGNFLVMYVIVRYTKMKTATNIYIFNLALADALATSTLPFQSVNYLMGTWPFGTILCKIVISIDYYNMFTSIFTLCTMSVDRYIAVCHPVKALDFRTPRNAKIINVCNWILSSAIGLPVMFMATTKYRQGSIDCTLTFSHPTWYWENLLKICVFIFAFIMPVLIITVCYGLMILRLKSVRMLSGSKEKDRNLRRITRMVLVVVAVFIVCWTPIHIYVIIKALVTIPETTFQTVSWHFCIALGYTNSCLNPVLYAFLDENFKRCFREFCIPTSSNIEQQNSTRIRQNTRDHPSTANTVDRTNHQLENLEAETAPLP

[3] = target: kappa opioid receptor (Homo sapiens, UniProt P41145); experiment: Kappa-opioid receptor radioligand displacement ([3H]U69593); format: binding
Chain of kappa opioid receptor (P41145 whole entry): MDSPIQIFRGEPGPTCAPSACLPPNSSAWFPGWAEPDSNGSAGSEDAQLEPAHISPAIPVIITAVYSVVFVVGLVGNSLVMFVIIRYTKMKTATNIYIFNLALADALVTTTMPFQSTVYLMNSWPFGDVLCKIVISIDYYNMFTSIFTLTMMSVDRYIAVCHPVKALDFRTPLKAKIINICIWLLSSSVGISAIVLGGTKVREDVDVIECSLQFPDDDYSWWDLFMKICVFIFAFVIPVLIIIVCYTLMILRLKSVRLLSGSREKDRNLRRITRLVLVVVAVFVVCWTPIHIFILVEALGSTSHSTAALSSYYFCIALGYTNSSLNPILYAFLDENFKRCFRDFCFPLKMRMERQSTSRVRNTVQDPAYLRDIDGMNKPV

[4] = target: T2, TRPM8 ion channel (Homo sapiens, UniProt Q7Z2W7); experiment: Effect on activity of TRPM8 ion channel (Fluo-4 AM calcium); format: cell-based; conditions: TRPM8 expressing HEK293 cells; Icilin 100 nM; intracellular calcium; read-out: IC50, blocker of TRPM8 ion channel
T2 construct: expressed in transfected cells; host or cells: HEK293 cells
T2 sequence (Q7Z2W7 whole entry): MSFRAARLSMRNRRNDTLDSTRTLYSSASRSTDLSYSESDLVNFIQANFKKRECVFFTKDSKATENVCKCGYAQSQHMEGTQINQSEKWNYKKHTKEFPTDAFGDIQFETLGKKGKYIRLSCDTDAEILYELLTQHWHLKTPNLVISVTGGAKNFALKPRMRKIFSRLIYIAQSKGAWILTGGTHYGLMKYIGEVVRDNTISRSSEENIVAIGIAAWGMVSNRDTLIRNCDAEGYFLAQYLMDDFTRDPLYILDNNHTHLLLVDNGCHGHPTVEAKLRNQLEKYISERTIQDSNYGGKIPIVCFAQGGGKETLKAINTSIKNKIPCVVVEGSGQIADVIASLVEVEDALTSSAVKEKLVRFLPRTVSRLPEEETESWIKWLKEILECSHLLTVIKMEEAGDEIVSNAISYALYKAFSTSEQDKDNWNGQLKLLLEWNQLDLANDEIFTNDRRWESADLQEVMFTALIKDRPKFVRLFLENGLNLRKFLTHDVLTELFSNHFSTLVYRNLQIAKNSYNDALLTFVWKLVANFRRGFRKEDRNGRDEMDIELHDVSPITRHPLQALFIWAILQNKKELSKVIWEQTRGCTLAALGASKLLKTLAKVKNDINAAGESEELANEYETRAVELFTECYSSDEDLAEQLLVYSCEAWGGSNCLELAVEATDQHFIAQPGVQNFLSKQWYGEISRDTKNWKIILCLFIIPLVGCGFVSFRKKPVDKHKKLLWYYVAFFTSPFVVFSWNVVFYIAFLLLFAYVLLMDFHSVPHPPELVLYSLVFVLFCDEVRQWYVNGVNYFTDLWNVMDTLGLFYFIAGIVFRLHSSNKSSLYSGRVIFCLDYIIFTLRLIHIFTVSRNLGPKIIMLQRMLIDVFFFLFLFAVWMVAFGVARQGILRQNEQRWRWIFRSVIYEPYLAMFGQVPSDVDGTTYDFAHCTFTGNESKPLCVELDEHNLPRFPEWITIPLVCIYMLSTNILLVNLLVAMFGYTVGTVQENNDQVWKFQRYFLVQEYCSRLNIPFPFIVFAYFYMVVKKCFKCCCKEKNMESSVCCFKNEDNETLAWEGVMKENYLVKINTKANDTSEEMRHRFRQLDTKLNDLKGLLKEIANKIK
Procedure: Compound I was dissolved in DMSO to a concentration of 100 mM; then the stock solution was diluted with DMSO to prepare a test solution with the concentration of substance equal to 50 μM. TRPM8 expressing HEK293 cells were used in the experiment. At the day of the experiment, the cells were incubated with a 4 μM of a solution of fluorescent indicator Fluo-4 AM. The cells after the preincubation with Icilin (100 nM), the known agonist of TRPM8 ion channel, were incubated with the test compound. The activity of receptors was determined by the intracellular calcium concentration using fluorescence spectroscopy (Behrendt, H. J. et al. (2004), Br. J. Pharmacol., 141: 737-745. FINAL).

[5] = system: male balb/c mice; experiment: Open field test, functional state of the central nervous system of mice; format: in vivo; conditions: for The number of acts of defecation within 15 minutes: control 0.2 ± 0.1; for The number of washes within 15 minutes (grooming): control 8.0 ± 1.5; for Number of standing up on hind legs in 15 minutes (vertical activity): control 67.1 ± 3.5; for Number of squares crossed within 15 minutes (horizontal activity): control 443.3 ± 15.6; for General physical activity for 15 minutes: control 518.4 ± 15.3
Procedure: For the final confirmation of the safety of Compound I at the oral administration, the study of the effect of Compound I on the functional state of the central nervous system of mice in the open field test was carried out. “Open field” test consists in the evaluation of motor and research activities, orientation reaction and emotional reactivity in the registration of spontaneous behaviour of animals. The study was carried out according to the standard technique (Buresh Y, Bureshova O., Joseph P. Houston. Methods and main experiments to study the brain and behavior (Moscow, 1991, pp. 119-122).
The study was carried out on male balb/c mice, the individual weight of which deviates from the mean value within the sex of no more than ±10%.
Compound I was administered once, intragastrically. The evaluation of the effect on the central nervous system was carried out 2 hours after the administration of Compound I in the study of the approximate research behaviour of mice in the “open field”. The experimental “open field” facility was a chamber of 100×100×60 cm in size, with a square floor and white walls. The floor of the chamber is divided into 16 squares, in each square there is the round orifice having 6 cm in diameter. The chamber is illuminated by the incandescent electric lamp having a power of 100 watts, located at a height of 1 m from the floor of the chamber. The animal was placed in one of the corners of the chamber and for 15 minutes the number of horizontal squares crossed by it (horizontal activity), getting up on its hind legs (vertical activity), washing (grooming), and defecation by the number of fecal balls were recorded. Then the total motor activity was calculated, the activity was calculated as the sum of the crossed horizontal squares, standing on the hind legs and washing.
The obtained data were checked using the Grubb's test for the presence of the largest or smallest abnormal observation (ejection) in the sample. Values determined “to be eliminated” in this test were not used for further assay. For all data, descriptive statistics was used: a mean value (M) and standard error of the mean value (m) were counted up. The normality of distribution of the values obtained in the course of the experiment was checked with the aid of the Kolmogorov-Smirnov test. In the case of normal distribution, Student's t-test (t-test) was used to evaluate the inter-group distinctions. In the case of the distribution that is other than the normal one the Kruskalll-Wallis test with Dann's post hoc test was used for the comparison of several groups. Distinctions were determined at 5% at a level of confidence.

[6] = system: male and female rats; experiment: Acute toxicity at single administration, rats; format: in vivo; conditions: for Body weight gain / Death of animals: male and female; for Death of animals: 14 days observation
Procedure: (§1) The acute toxicity study was performed on 24 male and 24 female rats, and also on 24 male and 24 female mice. Before the administration of the Compound I, the body weight of the animals was recorded, after 1 hour of the administration, the state of the experimental animals was observed. Then, the body weights of rats and mice were recorded daily for 14 days after the administration of the substance, and the examination was carried out to detect the cases of death and abnormality in the state of the animals.
(§2) Compound I was administered to rats and mice intragastrically at a dose of 5000 mg/kg, intraperitoneally—at a dose of 2000 mg/kg. Control groups (female and male objects) were received a solvent (0.1% Tween-80 solution in water).

[7] = system: male and female mice; experiment: Acute toxicity at single administration, mice; format: in vivo; conditions: for Body weight gain / Death of animals: male and female; for Death of animals: 14 days observation
Procedure: as §1, §2

[8] = 0.75 mg/kg intragastrically 2 hours prior
[9] = 1.5 mg/kg intragastrically 2 hours prior
[10] = 2.5 mg/kg intragastrically 2 hours prior
[11] = 5 mg/kg intragastrically 2 hours prior
[12] = 10 mg/kg intragastrically 2 hours prior
[13] = 20 mg/kg intragastrically 2 hours prior
[14] = 30 mg/kg intragastrically 2 hours prior
[15] = intragastrically 5000 mg/kg, intraperitoneally 2000 mg/kg

T1 sequence (P25103 whole entry): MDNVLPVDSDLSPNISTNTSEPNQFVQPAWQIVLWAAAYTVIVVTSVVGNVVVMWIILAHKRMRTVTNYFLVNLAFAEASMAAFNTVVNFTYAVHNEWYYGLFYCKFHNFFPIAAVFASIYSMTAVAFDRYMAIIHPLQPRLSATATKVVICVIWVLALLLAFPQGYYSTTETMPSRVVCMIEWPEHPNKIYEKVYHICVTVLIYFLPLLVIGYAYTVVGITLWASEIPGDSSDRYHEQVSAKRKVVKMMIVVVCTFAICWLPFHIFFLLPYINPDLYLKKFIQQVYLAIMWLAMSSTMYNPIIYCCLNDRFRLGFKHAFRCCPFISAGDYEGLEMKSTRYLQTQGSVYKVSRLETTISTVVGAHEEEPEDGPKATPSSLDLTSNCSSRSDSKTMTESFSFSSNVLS

SMILES: O=C(Cc1ccc(O)cc1)N[C@@H](Cc1ccccc1)C(=O)NCCc1ccccc1 [Compound I, 2-phenylethylamide N-(p-hydroxyphenylacetyl)phenylalanine]
- IC50 [1]: 59 µM
- IC50 [2]: 4.1 µM
- IC50 [3]: 7.1 µM
- IC50 [4]: 62 µM
- The number of acts of defecation within 15 minutes [5, 8]: 0.2 ± 0.1
- The number of washes within 15 minutes (grooming) [5, 8]: 7.2 ± 1.4
- Number of standing up on hind legs in 15 minutes (vertical activity) [5, 8]: 69.9 ± 4.3
- Number of squares crossed within 15 minutes (horizontal activity) [5, 8]: 468.5 ± 13.0
- General physical activity for 15 minutes [5, 8]: 545.6 ± 16.5
- The number of acts of defecation within 15 minutes [5, 9]: 1.6 ± 0.6
- The number of washes within 15 minutes (grooming) [5, 9]: 8.5 ± 1.6
- Number of standing up on hind legs in 15 minutes (vertical activity) [5, 9]: 63.0 ± 4.2
- Number of squares crossed within 15 minutes (horizontal activity) [5, 9]: 414.2 ± 24.1
- General physical activity for 15 minutes [5, 9]: 485.7 ± 24.8
- The number of acts of defecation within 15 minutes [5, 10]: 0.0 ± 0.0
- The number of washes within 15 minutes (grooming) [5, 10]: 8.6 ± 1.6
- Number of standing up on hind legs in 15 minutes (vertical activity) [5, 10]: 72.8 ± 3.5
- Number of squares crossed within 15 minutes (horizontal activity) [5, 10]: 459.5 ± 19.0
- General physical activity for 15 minutes [5, 10]: 540.9 ± 18.0
- The number of acts of defecation within 15 minutes [5, 11]: 1.5 ± 0.2
- The number of washes within 15 minutes (grooming) [5, 11]: 2.3 ± 1.0
- Number of standing up on hind legs in 15 minutes (vertical activity) [5, 11]: 71.7 ± 4.4
- Number of squares crossed within 15 minutes (horizontal activity) [5, 11]: 480.6 ± 22.1
- General physical activity for 15 minutes [5, 11]: 554.6 ± 23.9
- The number of acts of defecation within 15 minutes [5, 12]: 0.0 ± 0.0
- The number of washes within 15 minutes (grooming) [5, 12]: 6.8 ± 1.3
- Number of standing up on hind legs in 15 minutes (vertical activity) [5, 12]: 66.1 ± 3.3
- Number of squares crossed within 15 minutes (horizontal activity) [5, 12]: 449.2 ± 15.6
- General physical activity for 15 minutes [5, 12]: 522.1 ± 16.5
- The number of acts of defecation within 15 minutes [5, 13]: 0.0 ± 0.0
- The number of washes within 15 minutes (grooming) [5, 13]: 6.2 ± 1.3
- Number of standing up on hind legs in 15 minutes (vertical activity) [5, 13]: 64.9 ± 4.0
- Number of squares crossed within 15 minutes (horizontal activity) [5, 13]: 479.4 ± 29.3
- General physical activity for 15 minutes [5, 13]: 545.5 ± 30.4
- The number of acts of defecation within 15 minutes [5, 14]: 0.0 ± 0.0
- The number of washes within 15 minutes (grooming) [5, 14]: 5.9 ± 1.4
- Number of standing up on hind legs in 15 minutes (vertical activity) [5, 14]: 69.0 ± 3.8
- Number of squares crossed within 15 minutes (horizontal activity) [5, 14]: 448.4 ± 16.4
- General physical activity for 15 minutes [5, 14]: 523.3 ± 16.6
- Toxic influence on approximate-research behaviour in the open field test ([5]; intragastric administration, 0.75-30 mg/kg, no statistically significant differences to control): did not have the toxic influence
- Differences in the spontaneous behaviour, responses to the caused reactions [6, 15]: not observed
- Body weight gain ([6]; intragastrically 5000 mg/kg): lag in body weight gain
- Death of animals ([6]; intragastrically 5000 mg/kg): did not cause death of animals
- Body weight gain ([6]; intraperitoneally 2000 mg/kg): lag in body weight gain
- Death of animals ([6]; intraperitoneally 2000 mg/kg): did not cause death of animals
- Differences in the spontaneous behaviour, responses to the caused reactions [7, 15]: not observed
- Body weight gain ([7]; intragastrically 5000 mg/kg): lag in body weight gain
- Death of animals ([7]; intragastrically 5000 mg/kg): did not cause death of animals
- Body weight gain ([7]; intraperitoneally 2000 mg/kg): lag in body weight gain
- Death of animals ([7]; intraperitoneally 2000 mg/kg): did not cause death of animals
